Experimental data reported in US20250091989A1, “SMALL MOLECULE PROTEIN SYNTHESIS MODULATORS” (Interdict Bio, Inc., priority 2023, published 2025).

What was measured:
Assay type in all cases: biochemical
Conditions in all cases: HeLa S3 lysate, sfGFP/mCherry ratio, 2 hrs at 30° C.
[1] = tested on: KRAS G12D; test: In vitro transcription-translation (IVTT) reporter assay, KRAS G12D test sequence
Excerpt: (§1) All reporter constructs have been cloned into the pT7CFE1-CHis plasmid (ThermoFisher #88860) using Gibson assembly procedures (NEB #E2611L). The parental pT7CFE1-CHis plasmid contains an EMCV IRES at the 5′UTR for translation initiation, a multiple-cloning site (MCS) for gene insertion, an optional C-terminal His-epitope tag, and polyA sequence in the 3′UTR to regulate mRNA stability. All reporters are designed to be inserted at the MCS to include a red fluorescent protein (mCherry), P2A self-cleaving peptide which releases the preceding mCherry protein product, and a fusion open reading frame containing a 3×FLAG epitope, a peptide sequence of interest (TEST), and green fluorescent protein (sfGFP).
(§2) Construct Plasmid Preparation: All plasmids are isolated from MACH1 cells (ThermoFisher) grown overnight in ampicillin-containing luria broth, and purified using ZymoPure Express Plasmid Midiprep Kit (Zymo Research). Constructs are sequenced verified and diluted to a working concentration of 110 ng/μL.
(§3) HeLa S3 Lysate Preparation: HeLa S3 cell pellets are acquired from Ipracell/Ipratech (Belgium) and shipped as 4 mL frozen cell pellets on dry ice for storage at −80° C. until use. The procedure for lysate preparation is as follows. Prepare 1× Lysis Buffer, cold and stored on ice:
(§4) Each preparation takes 8 cell pellets (4 ml packed volume each, approximately 1.0×10^9 cells per pellet). Thaw cell pellets from −80° C. on ice for 90 mins. Lay pellets horizontally on top of the ice and rotate every 30 mins to ensure even thawing. Once thawed, add 4 mL of cold lysis buffer to each pellet, and using a serological pipet, gently pipet up and down to break up clumps. Incubate resuspended cells in ice for an additional 30 mins (plunged into ice). During 30 min incubation, rinse and RNase-zap (Ambion) glass dounces (use loose pestle “A”), gently dry and place on ice until needed. Prepare RNase-free Eppendorf tubes for spinning and for batch storage. Add batch labels to 1.5-1.7 mL RNase-free microcentrifuge tubes (labeling scheme below). Each batch will have an extra 1.5-1.7 mL RNase-free microcentrifuge tube for 40 μL of lysate, label the top of this tube (labeling scheme below). After 30 min incubation, transfer all 8 mL of cell pellet to dounce. Cell lysis is complete after douncing 100 times. Aliquot cell lysis into 1.5-1.7 mL temporary-microcentrifuge tubes. Place tubes in centrifuge with “fins” out, and spin at 1,200 xg for 5 mins. After the first spin use a 1 mL pipet to resuspend each tube and repeat spin. This acts as an additional lysis step, is more vigorous and increases lysate yield. During second spin get liquid N2 and a fresh conical tube on ice.
(§5) After spin is complete, transfer supernatant (lysate) from microcentrifuge tubes into the 50 mL conical tube and keep on ice. Repeat steps 10-14 for all other cell pellets until completed. Once all cell lysate has been transferred to the 50 mL conical tube pipet to mix so the solution is homogenous. Transfer 1 mL of lysate into batch-labeled microcentrifuge tubes and flash freeze in liquid nitrogen. Be sure to pipet up and down to mix throughout transfer step. Place all tubes in the […] for long-term storage.
(§6) In vitro transcription-translation assay setup: Each assay includes a master mix containing lysate and shared components, a 96-well plate containing compound titrations for testing, a 96-well DNA plate with reporter constructs to be tested, 96-well skirted PCR plates, and 96-well flat-bottom, black, fluorescent assay plates. […]

[2] = tested on: MYC; test: In vitro transcription-translation (IVTT) reporter assay, MYC test sequence
Excerpt: as §1, §2, §3, §4, §5, §6

[3] = tested on: ALK; test: In vitro transcription-translation (IVTT) reporter assay, ALK test sequence
Excerpt: as §1, §2, §3, §4, §5, §6

Row | SMILES | IC50 [1] | IC50 [2] | IC50 [3]
1 | COc1ccc(C[C@H]2NC[C@H](O)[C@H]2OC(=O)[C@H]2CC[C@@H](O)CC2)cc1 [V186822, (2R,3S,4S)-4-hydroxy-2-[(4-methoxyphenyl)methyl]pyrrolidin-3-yl (1 s,4 s)-4-hydroxy cyclohexane-1-carboxylate] | > 30 µM |  | 
2 | COc1ccc(C[C@H]2NC[C@H](O)[C@H]2OC(=O)[C@@H]2CN(Cc3ccccc3)CC23CNC3)cc1 [V186717, (2R,3S,4S)-4-hydroxy-2-[(4-methoxyphenyl)methyl]pyrrolidin-3-yl (8S)-6-benzyl-2,6-diazaspiro[3.4]octane-8-carboxylate] |  | > 30 µM | > 30 µM
3 | COc1ccc(C[C@H]2NC[C@H](O)[C@H]2OC(=O)CCn2ccc(=O)[nH]c2=O)cc1 [V186992, (2R,3S,4S)-4-hydroxy-2-[(4-methoxyphenyl)methyl]pyrrolidin-3-yl 3-(2,4-dioxo-3H-pyrimidin-1-yl)propanoate] |  | < 10 µM | < 10 µM
4 | O=C(Cc1cccc(F)c1)O[C@@H]1[C@@H](O)CN[C@@H]1Cc1ccc(-c2cnco2)cc1 [V192843, (2R,3S,4S)-4-hydroxy-2-{[4-(1,3-oxazol-5-yl)phenyl]methyl}pyrrolidin-3-yl 2-(3-fluorophenyl)acetate] |  | < 10 µM | 
5 | COc1ccc(C[C@H]2NC[C@H](O)[C@H]2OC(=O)CCc2cn(C)cn2)cc1 [V187096, (2R,3S,4S)-4-hydroxy-2-[(4-methoxyphenyl)methyl]pyrrolidin-3-yl 3-(1-methylimidazol-4-yl)propanoate; trifluoroacetic acid] |  | < 10 µM | < 10 µM
6 | O=C(CC[C@@H]1CCCN1)O[C@@H]1[C@@H](O)CN[C@@H]1Cc1ccc(-c2cnco2)cc1 [V192841] |  | < 10 µM | 
7 | COc1ccc(C[C@H]2NC[C@H](O)[C@H]2OC(=O)Cc2ccc(N3CCOCC3)cc2)cc1 [V187134, (2R,3S,4S)-4-hydroxy-2-[(4-methoxyphenyl)methyl]pyrrolidin-3-yl 2-[4-(morpholin-4-yl)phenyl]acetate] |  | < 10 µM | < 10 µM
8 | CC(=O)O[C@@H]1[C@@H](O)CN[C@@H]1Cc1ccc(OC(F)(F)F)cc1 [V187185, (2R,3S,4S)-4-hydroxy-2-{[4-(trifluoromethoxy)phenyl]methyl}pyrrolidin-3-yl acetate] |  | < 10 µM | 
9 | COc1ccc(C[C@H]2NC[C@H](O)[C@H]2OC(=O)c2ccc(F)c(S(=O)(=O)N(C)C)c2)cc1 [V000196, (2R,3S,4S)-4-hydroxy-2-[(4-methoxyphenyl)methyl]pyrrolidin-3-yl 3-(dimethylsulfamoyl)-4-fluorobenzoate] |  | > 30 µM | > 30 µM
10 | COc1ccc(C[C@H]2NC[C@H](O)[C@H]2OC(=O)[C@H]2CC[C@@H](O)CC2)cc1 [V186823, (2R,3S,4S)-4-hydroxy-2-[(4-methoxyphenyl)methyl]pyrrolidin-3-yl (1 s,4 s)-4-hydroxy cyclohexane-1-carboxylate] |  | > 30 µM | 20 to 30 µM
11 | O=C(CC[C@@H]1CCCN1)O[C@@H]1[C@@H](O)CN[C@@H]1Cc1ccc(-c2cncs2)cc1 [V192842, (2R,3S,4S)-4-hydroxy-2-{[4-(1,3-thiazol-5-yl)phenyl]methyl}pyrrolidin-3-yl 3-[(2S)-pyrrolidin-2-yl]propanoate] |  | < 10 µM | 
12 | COc1ccc(C[C@H]2NC[C@H](O)[C@H]2OC(=O)CC[C@H]2CN(C)CCN2C)cc1 [V186854, (2R,3S,4S)-4-hydroxy-2-[(4-methoxyphenyl)methyl]pyrrolidin-3-yl 3-[(2S)-1,4-dimethylpiperazin-2-yl]propanoate; trifluoroacetic acid] |  | > 30 µM | > 30 µM
13 | O=C(CC1CC(F)(F)C1)O[C@@H]1[C@@H](O)CN[C@@H]1Cc1ccc(-c2cnco2)cc1 [V192387, (2R,3S,4S)-4-hydroxy-2-{[4-(1,3-oxazol-5-yl)phenyl]methyl}pyrrolidin-3-yl 2-(3,3-difluorocyclobutyl)acetate] |  | < 10 µM | 
14 | COc1ccc(C[C@H]2NC[C@H](O)[C@H]2OC(=O)Cn2cnnc2)cc1 [V187181, (2R,3S,4S)-4-hydroxy-2-[(4-methoxyphenyl)methyl]pyrrolidin-3-yl 2-(1,2,4-triazol-4-yl)acetate] |  | 20 to 30 µM | < 10 µM
15 | COc1ccc(C[C@H]2NC[C@H](O)[C@H]2OC(=O)CC[C@@H]2CCCN2)cc1 [V192931, (2R,3S,4S)-4-hydroxy-2-[(4-methoxyphenyl)methyl]pyrrolidin-3-yl 3-[(2S)-pyrrolidin-2-yl]propanoate] |  | < 10 µM | 
16 | O=C(C[C@@H]1CCNC1)O[C@@H]1[C@@H](O)CN[C@@H]1Cc1ccc(C(F)F)cc1 [V193046, (2R,3S,4S)-2-{[4-(difluoromethyl)phenyl]methyl}-4-hydroxypyrrolidin-3-yl 2-[(3S)-pyrrolidin-3-yl]acetate] |  | < 10 µM | 
17 | COc1ccc(C[C@H]2NC[C@H](O)[C@H]2OC(=O)Cc2ccc(CC(C)C)cc2)cc1 [V187182, (2R,3S,4S)-4-hydroxy-2-[(4-methoxyphenyl)methyl]pyrrolidin-3-yl 2-[4-(2-methylpropyl)phenyl]acetate; trifluoroacetic acid] |  | > 30 µM | 10 to 20 µM
18 | O=C(C[C@@H]1CCNC1)O[C@@H]1[C@@H](O)CN[C@@H]1Cc1ccc(-c2cnco2)cc1 [V193047, (2R,3S,4S)-4-hydroxy-2-{[4-(1,3-oxazol-5-yl)phenyl]methyl}pyrrolidin-3-yl 2-[(3S)-pyrrolidin-3-yl]acetate] |  | < 10 µM | 
19 | O=C(CC1CC(F)(F)C1)O[C@@H]1[C@@H](O)CN[C@@H]1Cc1ccc(-c2cncs2)cc1 [V192840, (2R,3S,4S)-4-hydroxy-2-{[4-(1,3-thiazol-5-yl)phenyl]methyl}pyrrolidin-3-yl 2-(3,3-difluorocyclobutyl)acetate] |  | < 10 µM | 
20 | COc1ccc(C[C@H]2NC[C@H](O)[C@H]2OC(=O)CC[C@H]2CNCCN2)cc1 [V041828, (2R,3S,4S)-4-hydroxy-2-[(4-methoxyphenyl)methyl]pyrrolidin-3-yl 3-[(2S)-piperazin-2-yl]propanoate] |  | > 30 µM | > 30 µM
21 | CC(=O)O[C@@H]1[C@@H](O)CN[C@@H]1Cc1ccc(-c2cnco2)cc1 [V192987, (2R,3S,4S)-4-hydroxy-2-{[4-(1,3-oxazol-5-yl)phenyl]methyl}pyrrolidin-3-yl acetate] |  | < 10 µM | 
22 | O=C(Cc1cccc(F)c1)O[C@@H]1[C@@H](O)CN[C@@H]1Cc1ccc(-c2cncs2)cc1 [V192844, (2R,3S,4S)-4-hydroxy-2-{[4-(1,3-thiazol-5-yl)phenyl]methyl}pyrrolidin-3-yl 2-(3-fluorophenyl)acetate] |  | < 10 µM | 
23 | COc1ccc(C[C@H]2NC[C@H](O)[C@H]2OC(=O)Cc2nccs2)cc1 [V187052, (2R,3S,4S)-4-hydroxy-2-[(4-methoxyphenyl)methyl]pyrrolidin-3-yl 2-(1,3-thiazol-2-yl)acetate; trifluoroacetic acid] |  | < 10 µM | < 10 µM
24 | COc1ccc(C[C@H]2NC[C@H](O)[C@H]2OC(=O)C2(N)CCCC2)cc1 [V186782, (2R,3S,4S)-4-hydroxy-2-[(4-methoxyphenyl)methyl]pyrrolidin-3-yl 1-aminocyclopentane-1-carboxylate] |  | > 30 µM | > 30 µM
25 | COc1ccc(C[C@H]2NC[C@H](O)[C@H]2OC(=O)Cc2cccs2)cc1 [V187050, (2R,3S,4S)-4-hydroxy-2-[(4-methoxyphenyl)methyl]pyrrolidin-3-yl 2-(thiophen-2-yl)acetate] |  | < 10 µM | < 10 µM
26 | COc1ccc(C[C@H]2NC[C@H](O)[C@H]2OC(=O)CCc2ccccc2)cc1 [V187069, (2R,3S,4S)-4-hydroxy-2-[(4-methoxyphenyl)methyl]pyrrolidin-3-yl 3-phenylpropanoate] |  | < 10 µM | < 10 µM
27 | CC(=O)O[C@@H]1[C@@H](O)CN[C@@H]1Cc1ccc(-c2nn[nH]n2)cc1 [V187008, (2R,3S,4S)-4-hydroxy-2-{[4-(2H−1,2,3,4-tetrazol-5-yl)phenyl]methyl}pyrrolidin-3-yl acetate; trifluoroacetic acid] |  | < 10 µM | < 10 µM
